# Measurements as given in article PMC9529664 (Current Research in Food Science, 2022).
# Residues, ends and D or L forms follow the SMILES beside them.
# Target: DPP-IV enzyme (Homo sapiens, UniProt P27487)
# Test: biochemical
# Sequence of DPP-IV enzyme (P27487 whole entry, species assumed): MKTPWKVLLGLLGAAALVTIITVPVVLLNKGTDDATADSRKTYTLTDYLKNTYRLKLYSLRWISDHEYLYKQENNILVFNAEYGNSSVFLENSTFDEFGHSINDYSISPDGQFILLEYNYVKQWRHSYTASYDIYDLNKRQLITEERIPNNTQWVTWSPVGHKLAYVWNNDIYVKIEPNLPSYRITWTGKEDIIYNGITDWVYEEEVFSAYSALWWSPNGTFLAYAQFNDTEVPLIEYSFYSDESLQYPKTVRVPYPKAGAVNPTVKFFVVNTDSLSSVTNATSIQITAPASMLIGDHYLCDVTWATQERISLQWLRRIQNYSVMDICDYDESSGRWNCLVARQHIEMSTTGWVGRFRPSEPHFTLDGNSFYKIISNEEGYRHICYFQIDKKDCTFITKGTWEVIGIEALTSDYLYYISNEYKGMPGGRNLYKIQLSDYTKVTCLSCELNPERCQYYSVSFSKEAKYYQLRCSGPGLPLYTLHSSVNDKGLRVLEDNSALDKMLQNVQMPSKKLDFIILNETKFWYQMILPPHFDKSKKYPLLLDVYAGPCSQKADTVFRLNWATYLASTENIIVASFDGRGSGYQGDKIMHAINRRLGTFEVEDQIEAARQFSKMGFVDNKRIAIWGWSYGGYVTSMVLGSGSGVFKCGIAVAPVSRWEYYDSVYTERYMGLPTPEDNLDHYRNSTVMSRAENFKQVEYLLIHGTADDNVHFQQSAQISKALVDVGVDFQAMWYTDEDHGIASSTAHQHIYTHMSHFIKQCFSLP
row,Structure (SMILES),IC50 [mM]
1,C[C@@H](O)[C@H](NC(=O)[C@H](CC(N)=O)NC(=O)CNC(=O)[C@H](Cc1ccccc1)NC(=O)[C@@H]1CCCN1)C(=O)N[C@@H](Cc1c[nH]cn1)C(=O)N[C@@H](CC(N)=O)C(=O)N[C@@H](CC(N)=O)C(=O)N[C@@H](Cc1ccccc1)C(=O)N[C@@H](CCCCN)C(=O)O [D1] (H-PFGNTHNNFK-OH),8.51
2,CC[C@H](C)[C@H](N)C(=O)N1CCC[C@H]1C(=O)N[C@@H](Cc1c[nH]cn1)C(=O)N[C@@H](CCC(=O)O)C(=O)N[C@@H](CO)C(=O)N[C@H](C(=O)N[C@@H](CC(=O)O)C(=O)N[C@H](C(=O)N[C@H](C(=O)N[C@@H](CCCCN)C(=O)O)[C@@H](C)CC)C(C)C)C(C)C [D22] (H-IPHESVDVIK-OH),2.69
3,CC(C)[C@H](NC(=O)[C@H](C)NC(=O)[C@H](CCC(=O)O)NC(=O)[C@H](C)NC(=O)[C@@H]1CCCN1C(=O)[C@@H](N)CCC(=O)O)C(=O)NCC(=O)N[C@@H](CC(=O)O)C(=O)N[C@@H](Cc1c[nH]c2ccccc12)C(=O)N[C@@H](CCCNC(=N)N)C(=O)O [D37] (H-EPAEAVGDWR-OH),0.1
4,CSCC[C@H](NC(=O)[C@H](Cc1c[nH]cn1)NC(=O)[C@H](CC(N)=O)NC(=O)[C@H](CC(N)=O)NC(=O)[C@H](Cc1c[nH]cn1)NC(=O)[C@H](CCCCN)NC(=O)[C@H](CO)NC(=O)[C@H](CC(C)C)NC(=O)[C@H](CC(=O)O)NC(=O)[C@@H]1CCCN1)C(=O)O [D35] (H-PDLSKHNNHM-OH),3.88
